Reference: US9388389B2, “JFH-1 based HCV cell culture systems for NS5A of genotypes 1-7” (Hvidovre Hospital, priority 2009, dated 2016)

Columns and labels:
[1] = tested on: Huh7.5 cells; test: Spread of infection in culture, anti-Core immunostaining; format: cell-based; conditions: for percentage of culture infected: day 8 after transfection
Method: (§1) Culturing of Huh7.5 cells was done as described by Gottwein et al. 2007. One day prior to transfection or infection, naïve Huh7.5 cells were plated at 4×10^5/well in 6-well plates. In vitro transcription was carried out for 2 hours with T7 RNA polymerase (Promega) on 5 μg plasmid linearized with XbaI and treated with Mung Bean Nuclease (New England Biolabs, Beverly, Mass., USA) to yield the exact HCV 3′ end. For transfection, 2.5 μg of unpurified RNA transcripts were incubated with 5 μL Lipofectamine2000™ (Invitrogen) in 500 μL Opti-MEM (Invitrogen) for 20 min at room temperature. RNA-Lipofectamine2000™ transfection complexes were left on cells for 16-24 hours before washing. For infection, virus-containing supernatant was left on cells for 6-24 hours. Supernatants collected during experiments were sterile filtered and stored at −80° C.
(§2) Anti-Core immunostaining was done with mouse anti-HCV Core protein monoclonal antibody (B2) (Anogen Mississauga, Ontario, Canada) as primary antibody and Alexa Fluor 594 goat anti-mouse IgG (H+L) (Invitrogen) as secondary antibody. HCV RNA titers were determined by a TaqMan™ real-time PCR assay. Infectivity titers were determined as follows: 6×10^3 naïve Huh7.5 cells were plated per well in a poly-D-lysine coated 96-well plate (Nunc) one day before inoculation with three replicates of individual 10-fold dilutions of cell culture supernatants. Inocula were left on cells for 48 hours and cells were fixed using ice could methanol. After washing, blocking buffer (1% BSA, 0.2% skim milk) was added for 20 min and endogenous peroxidases were inhibited by application of H2O2 for 5 min. Primary antibody (anti-NS3, clone H26, Abcam, Cambridge, UK) diluted 1:1000 was left on cells for 3-4 days. Secondary antibody was ECL anti-mouse IgG HRP-linked whole antibody (GE Healthcare Amersham, Brondby, Denmark). Staining was developed using DAB substrate kit (DAKO, Glostrup, Denmark). The number of focus-forming units (FFU) per well were counted manually (dilutions with 5-100 FFU counted) or automatically. Automatic counting was performed on an ImmunoSpot Series 5 UV Analyzer™ (CTL Europe GmbH, Aalen, Baden-Württemberg, DE) with customized software. From FFU counts in experimental wells, the mean of spot counts of negative control wells was subtracted (typically around 5 spots).

[2] = tested on: Huh7.5 cells; test: Genetic stability, direct sequencing of complete ORF after passage; conditions: Table 2; ORF sequenced after passage to naïve cells
Method: RNA was extracted from cell culture supernatant using (Highly Pure Viral Nucleic Acid Kit™, Roche, Mannheim, Del.). RT-PCR was done using SuperScriptIII™ (Invitrogen, Carlsbad, Calif., USA). In 1st round PCR the Advantage 2 PCR Enzyme System was used. Cycle parameters were 35 s at 99° C., 30 s at 67° C. and 10 min (cycle 1-5), 11 min (cycle 6-15), 12 min (cycle 16-25) or 13 min (cycle 26-35) at 68° C. 12˜1 kb products were synthesized in overlapping nested PCRs covering the entire ORF using primer pairs as previously described. Primer pairs 8, 9 and 10 were modified to the genotype specific NS5A sequence (Table 20, SEQ ID NO 163-192). Cycle parameters were 35 s at 99° C. followed by 35 cycles with 35 s at 99° C., 30 s at 67° C. and 6 min at 68° C.
All sequence reactions were performed at Macrogen Inc., Seoul, South Korea. Sequence analysis was performed with Sequencher™ (Gene Codes Corporation) Vector NTI 11 (Invitrogen) and BioEdit™ (Tom Hall, Ibis Therapeutics). HCV sequences were retrieved from the European HCV database (euHCVdb; at the http: internet location //euhcvdb.ibcp.fr/euHCVdb/) and the Los Alamos HCV sequence database (LANL; at the http: Internet location //hcv.lanl.gov/content/hcv-db/index).
Genetic stability of NS5A recombinants after passage to naïve cells. Supernatant samples from transfection culture were passaged to naïve Huh7.5 cells and the complete ORF was sequenced after spread of infection in culture to check for further need of adaptation.

[3] = tested on: Huh7.5 cells; test: Infectivity titers (FFU) in supernatant after RNA transfection or viral passage; format: cell-based; conditions: for 1st passage Log(FFU/mL): maximum infectivity titer, two values separated by slash = two independent passages; for Peak titers Transfection Log (FFUs/mL) / Peak titers Viral passage Log (FFUs/mL): Table 2; for Peak titers Transfection Log (FFUs/mL): maximum infectivity titer observed in transfection experiments; for Peak titers Viral passage Log (FFUs/mL): maximum infectivity titer observed in viral passage experiments
Method: (§3) To determine the efficiency of the developed system, HCV RNA titers are determined in IU/ml (international units/ml) with Taq-Man Real-Time-PCR and infectious titers are determined with a focus-forming units (FFU) method: in this method, infectivity titers are determined by infection of cell culture replicates with serial dilutions of virus containing supernatants and, following immuno-stainings for HCV antigens, counting of HCV-antigen positive cell foci. Alternatively the infectious titers are determined as 50% tissue culture infectious dose.
as §1, §2

[4] = tested on: Huh7.5 cells; test: HCV RNA titers by TaqMan real-time PCR; format: cell-based; conditions: for 1st passage Log(IU/mL): Table 1b, maximum HCV RNA titer, two values separated by slash = two independent passages
Method: as §3, §2

[5] = tested on: TN(1a) NS5A recombinant; test: IFN-alpha 2b treatment of infected cultures; format: cell-based, hepatitis C virus; conditions: genotype 1a, isolate TN NS5A recombinant
Method: (§4) Huh7.5 cells were infected with J6/JFH1 with NS5A of the indicated isolate (or ISDR type). J6/JFH1 was included with two infectious doses to control for impact of dose variability. The infectious dose of other recombinants was in the range between. […] On day three cells were fixed and immunostained for NS3 expression. The number of single infected cells was determined by automated counting of individual wells. Values are shown as percentage infected cells compared to the average for non-treated controls of the given recombinant. Data were fitted to a sigmoidal dose-response curve with the equation Y=1/(1+10^((Log(EC50)−Log(IU/mL))*HillSlope)), where Y is the response in %.
(§5) 5×10^3 naïve Huh7.5 cells were plated per well in a poly-D-lysine coated 96-well plate (Nunc, Roskilde, D K) one day before infection with different recombinant viruses. Infectious doses were chosen to aim at 400-1000 single infected cells in non-treated wells at the end of the experiment. J6/JFH1 was included with two infectious doses (high and low) to control for impact of dose variability. The infectious dose of other recombinants was in the range between. […] On day three cells were fixed and immunostained for NS3 expression as described above. In parallel, cell viability was monitored with CellTiter™ 96 AQueous One Solution Cell Proliferation Assay (Promega, Madison, Wis. USA). The number of single infected cells was determined by automated counting of individual wells as described above.
(§6) On day three cells were fixed and immunostained for NS3 expression. The number of single infected cells was determined by automated counting (FIG. 15).

[6] = tested on: J4(1b) NS5A ISDR mutant recombinant; test: IFN-alpha 2b treatment of infected cultures; format: cell-based, hepatitis C virus; conditions: genotype 1b, isolate J4 NS5A
Method: as §4, §5, §6

[7] = tested on: HK6a(6a) NS5A recombinant; test: IFN-alpha 2b treatment of infected cultures; format: cell-based, hepatitis C virus; conditions: genotype 6a, isolate HK6a NS5A recombinant
Method: as §4, §5, §6

[8] = tested on: JFH1(2a) NS5A (J6/JFH1); test: IFN-alpha 2b treatment of infected cultures; format: cell-based, hepatitis C virus; conditions: genotype 2a, isolate JFH1 NS5A (J6/JFH1)
Method: as §4, §5, §6

[9] = tested on: J4(1b) NS5A recombinant; test: IFN-alpha 2b treatment of infected cultures; format: cell-based, hepatitis C virus; conditions: genotype 1b, isolate J4 NS5A recombinant
Method: as §4, §5, §6

[10] = tested on: QC69(7a) NS5A recombinant; test: IFN-alpha 2b treatment of infected cultures; format: cell-based, hepatitis C virus; conditions: genotype 7a, isolate QC69 NS5A recombinant
Method: as §4, §5, §6

[11] = tested on: ED43(4a) NS5A recombinant; test: IFN-alpha 2b treatment of infected cultures; format: cell-based, hepatitis C virus; conditions: genotype 4a, isolate ED43 NS5A recombinant
Method: as §4, §5, §6

[12] = tested on: SA13(5a) NS5A recombinant; test: IFN-alpha 2b treatment of infected cultures; format: cell-based, hepatitis C virus; conditions: genotype 5a, isolate SA13 NS5A recombinant
Method: as §4, §5, §6

[13] = tested on: J6(2a) NS5A recombinant; test: IFN-alpha 2b treatment of infected cultures; format: cell-based, hepatitis C virus; conditions: genotype 2a, isolate J6 NS5A recombinant
Method: as §4, §5, §6

[14] = tested on: H77C(1a) NS5A recombinant; test: IFN-alpha 2b treatment of infected cultures; format: cell-based, hepatitis C virus; conditions: genotype 1a, isolate H77C NS5A recombinant
Method: as §4, §5, §6

[15] = tested on: S52(3a) NS5A recombinant; test: IFN-alpha 2b treatment of infected cultures; format: cell-based, hepatitis C virus; conditions: genotype 3a, isolate S52 NS5A recombinant
Method: as §4, §5, §6

Substance: ED43/JFH1(ED43-NS5A): ED43 Core-NS2/NS5A recombinant without mutations adaptive for ED43/JFH1, SEQ ID NO 51
- spread / replication in culture ([1]; after transfection into Huh7.5 cells): never spread in culture

Substance: ED43/JFH12819,3269(ED43-NS5A)5270/7131: ED43 Core-NS2/NS5A recombinant with T5270C/A7131G, SEQ ID NO 193
- spread in culture / to the majority of culture, day after transfection ([1]; Huh7.5 cells, after transfection of RNA transcripts): 17 days
- percentage of culture infected [1]: 30%

Substance: ED43/JFH12819, 3269(ED43-NS5A): JFH1-based recombinant with Core-NS2 and NS5A of genotype 4a ED43, SEQ ID NO 52
- Genetically stable [2]: No
- 1st passage Log(FFU/mL) ([3]; Table 1b): 1.8 Log(FFU/mL)
- Peak titers Transfection Log (FFUs/mL) [3]: 2.0 Log (FFUs/mL)
- Peak titers Viral passage Log (FFUs/mL) [3]: 1.8 Log (FFUs/mL)
- percentage of culture infected [1]: 1%
- 1st passage Log(IU/mL) [4]: 7.1 Log(IU/mL)
- Peak titers Viral passage Log (IU/mL) ([4]; Table 2, maximum HCV RNA titer in all passage samples analyzed): 7.1 Log (IU/mL)

Substance: HK6a/JFH11389, 1590(HK6a-NS5A)7161: HK6a Core-NS2/NS5A recombinant with T7161A, SEQ ID NO 57
- Transfection Log(FFU/mL) ([3]; Table 1b, maximum infectivity titer after transfection, Core-NS2 and NS5A of same genotype): 2.7 Log(FFU/mL)
- 1st passage Log(FFU/mL) ([3]; Table 1b): 3.3 Log(FFU/mL)
- Peak titers Transfection Log (FFUs/mL) [3]: 2.7 Log (FFUs/mL)
- Peak titers Viral passage Log (FFUs/mL) [3]: 3.3 Log (FFUs/mL)

Substance: HK6a/JFH11389, 1590(HK6a-NS5A): JFH1-based recombinant with Core-NS2 and NS5A of genotype 6a HK6a, SEQ ID NO 56
- 1st passage Log(IU/mL) [4]: 7.0 Log(IU/mL)

Substance: IFN-α
- IFN-α, EC50 (IU/mL), original [5]: 0.28 IU/mL
- IFN-α, EC50 (IU/mL), 'Sensitive-type' ISDR mutant [6]: 0.12 IU/mL
- IFN-α, EC50 (IU/mL), original [7]: 0.21 IU/mL
- IFN-α, EC50 (IU/mL), original [8]: 0.25 IU/mL
- IFN-α, EC50 (IU/mL), original [9]: 0.12 IU/mL
- IFN-α, EC50 (IU/mL), original [10]: 0.18 IU/mL
- IFN-α, EC50 (IU/mL), original [11]: 0.15 IU/mL
- IFN-α, EC50 (IU/mL), original [12]: 0.32 IU/mL
- IFN-α, EC50 (IU/mL), original [13]: 0.12 IU/mL
- IFN-α, EC50 (IU/mL), original [14]: 0.25 IU/mL
- IFN-α, EC50 (IU/mL), original [15]: 0.27 IU/mL
